Measurements from patent US10526290B2, “Bendamustine derivatives and related compounds, and medical use thereof in cancer therapy” (SYNBIAS PHARMA AG, priority 2012, dated 2020).

melting point: 174 to 176.5 °C
Structure (SMILES): Cl.Cn1c(CCCC(=O)O)nc2ccc(N(CCCl)CCCl)cc21
